Measurements reported in patent publication EP2108954A1, “A test system for detecting intracellular cyclic nucleotide level and methods and uses thereof” (Max-Planck-Gesellschaft zur Förderung der Wissenschaften …, priority 2008, dated 2009).

Target: T1, Or22a (Drosophila melanogaster, UniProt P81909)
T1 construct: expressed in transfected cells; host or cells: HEK293
T1 sequence (P81909 1-397): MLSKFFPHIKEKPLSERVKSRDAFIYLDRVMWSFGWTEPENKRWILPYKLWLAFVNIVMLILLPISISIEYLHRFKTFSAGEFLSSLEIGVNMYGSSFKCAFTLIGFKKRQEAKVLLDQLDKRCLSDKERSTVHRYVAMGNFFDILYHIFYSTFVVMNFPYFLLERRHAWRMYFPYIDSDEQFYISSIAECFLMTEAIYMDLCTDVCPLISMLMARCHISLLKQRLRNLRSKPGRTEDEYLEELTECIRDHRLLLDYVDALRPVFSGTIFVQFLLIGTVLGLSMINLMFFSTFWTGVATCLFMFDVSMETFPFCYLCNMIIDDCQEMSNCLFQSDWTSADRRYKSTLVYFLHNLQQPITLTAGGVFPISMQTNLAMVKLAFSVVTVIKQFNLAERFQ
Test: Whole-cell patch-clamp of HEK293 cells expressing Or22a alone
Type: cell-based
Settings: HEK293 cells transfected with Or22a alone, -60 mV, n = 6
Protocol: HEK293 cells were cultured as described by Wicher and colleagues (Wicher et al., J. Biol. Chem. 281, 3227-36 (2006)). In brief, HEK293 cells were cultured at a density of ∼2*10^4 per 35-mm dish and transfected with 1 µg pcDNA3-DOR22a-GFP and 1 µg pcDNA3-DOR83b-GFP (Neuhaus, et al., Nat. Neurosci. 8, 15-17 (2005); DNAs were a generous gift of Dr. E. Neuhaus and Dr. H. Hatt) using Roti-Fect transfection kit (Roth, Karlsruhe, Germany). In some experiments we transfected cells with pcDNA3-DOR22a-GFP or pcDNA3-DOR83b-GFP alone. We also examined the properties of DOR47a, which was cloned, using standard molecular biology methods into a pcDNA3.1(-) expression vector. To test for putative G-protein coupling, cells were transfected with the respective OR-DNA together with 1.5 µg hHCN2/pcDNA3 (provided by M. Biel, Munich, Germany), with 1 µg hKCNQ4/pcDNA3.1 or with 1 µg hCNGA2/pCMV6-XL4 (Origene, Rockville, MD, USA).
Ion currents in HEK293 cells were measured with the patch-clamp technology as described (Wicher et al, J. Biol. Chem. 281, 3227-36 (2006)). In brief, ion currents in HEK293 cells were measured at room temperature using whole-cell patch-clamp with appropriate compensation of series resistance and of capacitive currents. Additional experiments were performed in the outside-out configuration. […]

CCCC(=O)OCC [Etb, ethyl butyrate]
inward current upon short Etb application: no current was observed
